Entries after “also recorded” stand apart in the source; their conditions may differ.
Assays:
[1] = test system: homologous recombination repair; test: Homologous recombination repair reporter plasmid system (flow cytometry, GFP/mRuby); format: cell-based; details: treated for 4 h at 18 h, 24 h, 36 h after medium change; flow analysis 72 h after transfection
Procedure: First, a reporter plasmid system for homologous recombination repair is constructed, and the cells emit green fluorescence only when the foreign homologous sequence and the homologous fragment of the cell are homologously recombined. Meanwhile, mRuby red fluorescent protein is transferred to label the efficiency of transfected cells, and the efficiency of homologous recombination is determined by flow cytometry analysis of the ratio of green fluorescent protein to mRuby. 18 h after changing the medium for the transfection, the control group is treated with DMSO for 4 h; and 18 h, 24 h, and 36 h after changing the medium for the transfection, the experimental group is treated with (−)-blebbistatin for 4 h, and the HDR efficiency is analyzed by flow analysis 72 h after transfection. […] The experimental procedure is as follows: after changing the medium for the transfection, the control group is treated with DMSO; and after changing the medium for the transfection, the experimental group is treated with 250 nM RTA408; then the HDR efficiency is analyzed by flow analysis 72 h after transfection.

[2] = test system: bleomycin-induced skin sclerosis; test: Bleomycin-induced scleroderma model; format: in vivo, mice; details: 1-3 mg/kg/day intraperitoneal
From the text: Scleroderma is a connective tissue disease characterized by localized or diffuse fibrosis of the skin and internal organs, thereby hardening and shrinking. The disease may cause multisystem injury, its exact cause and pathogenesis are still unclear, and there is no effective treatment means. […] One week after injection of bleomycin, the skin at the injection site on the back of mice begins to thicken and harden, and has poor elasticity; there is no change in hair growth until the end of the injection; meanwhile, induration and incrustation occurs at the injection site, accompanying with superficial ulcers. As for the shaved injection area on the back of the mice in the saline control group, the hair grows continuously, and no significant skin hardening and thickening phenomenon is observed, as shown in FIG. 7B. Treatment group (Bleb): intraperitoneal administration of myosin inhibitor (−)-blebbistatin (1-3 mg/kg/day, dissolved in 2-5% DMSO+30% PEG400+2% Tween 80+ddH2O); control group (con): without (−)-blebbistatin but containing the same amount of DMSO. […] Further experiments confirm that the myosin inhibitor (−)-blebbistatin promotes melanin accumulation in the induration zone and the growth of new hair, as shown in FIG. 7C.

[3] = test system: bleomycin-induced pulmonary fibrosis; test: Bleomycin-induced pulmonary fibrosis model; format: in vivo, mice; details: 1-3 mg/kg/day
Procedure: In the invention, bleomycin (BLM) is instilled into pulmonary tracheal of ICR or C57Bl/6 mice to successfully construct a mouse model of pulmonary fibrosis, and the mice are treated by intraperitoneal administration of myosin inhibitor (−)-blebbistatin. […] The detailed processes of injecting bleomycin are as follows:
(1) Dilution of bleomycin: 50 mg/ml stock solution is diluted 25 times to obtain a final concentration of 2 mg/ml.
(2) The mice are anesthetized by intraperitoneal injection of 0.5% sodium pentobarbital (100 μl/10 g b.w.).
(3) The neck skin is disinfected by 75% alcohol, cutting the neck skin and bluntly separating the mucosa and muscles of the trachea, exposing the trachea, and taking care not to damage the thyroid.
(4) 50 μl (20 g body weight) of bleomycin is injected into the interval of tracheal cartilage by an insulin syringe at a dose of 5 mg/kg. After the needle is pulled out, putting the console upright, rotating left and right for 1 min, and then the skin is sutured. The mice eat food and drink water freely after spontaneously awakening.
The mice are identified and divided into two groups: DMSO (indicated as “Con” in FIG. 8) and (−)-blebbistatin (indicated as “Bleb” in FIG. 8, 1-3 mg/kg/day) are respectively administrated by intraperitoneal injection, wherein they are respectively dissolved in 2-5% DMSO+30% PEG400+2% Tween80+ddH2O. The survival status of the mice is recorded with intraperitoneal injection/day, tail vein injection/3 days. The result is shown in FIG. 8B, all the mice in the control group died on day 8 of treatment, while the mice in the Bleb treatment group have a survival rate of 40% on day 15 of treatment.
(6) Small animal CT scanning is performed on D8 (modeling on D14), the samples are taken and fixed after heart perfusion, slicing the samples and performing H&E and Sirius red staining. The result is shown in FIG. 8D, (−)-blebbistatin inhibits tissue damage and fibrosis during bleomycin-induced lung damage.

CCl4 liver damage = test: Blood biochemistry, hepatocyte proliferation, apoptosis and liver function genes after CCl4 liver damage; format: in vivo, mice
Procedure: Blood biochemical analysis (fasting 12-16 hours before sampling) further confirms that myosin inhibitor (−)-blebbistatin may reduce the content of liver damage indicators such as ALT, AST and GGT, as shown in FIG. 4A. Further, Alb-crexmTmG hybrid mice are used for fibrosis modeling with CCl4, wherein GFP is expressed in mature hepatocytes of the mice. […] In summary, the myosin inhibitor (−)-blebbistatin promotes liver regeneration by inhibiting fibrosis of liver damage, promoting hepatocyte proliferation, and reducing apoptosis, thereby maintaining liver function.

liver tissue = test: Liver tissue rigidity (Young's modulus, Mark-10 ESM303) and second harmonic scanning in CCl4 chronic severe liver damage; format: in vivo, mice
From the text: The ICR, C57Bl/6 mice used in the experiment are purchased from SPF (Beijing) Biotechnology Co., Ltd.; elbow tweezers, finger tweezers, scissors, needle holders, suture needles, suture threads are purchased from Asone Trading Co., Ltd.; antibiotics are purchased from Gibco (15240-062). A chronic severe liver damage model induced by CCl4 (the same as Example 4) is constructed, and the mice are sacrificed by cervical dislocation after modeling. […] It can be seen from the above results that, the myosin inhibitor reduces the tissue rigidity during liver damage process.

Structure (SMILES): Cc1ccc2c(c1)C(=O)[C@]1(O)CCN(c3ccccc3)C1=N2 [(−)-blebbistatin]
- efficiency of homologous recombination (HDR efficiency) [1]: significantly increases
- FGF9 expression (immunofluorescence) [2]: more FGF9 is expressed
- KRT17 positive cells relative to KRT18 positive cells (immunostaining) [2]: much more
- NeuN expression in the induration zone (neural fate) [2]: expressed in some cells
- accumulation of mesenchymal fibers (H&E and Masson staining) [2]: significantly reduces
- epidermal and dermal thickness [2]: significantly reduces
- hair follicle cell proliferation (Ki-67 staining) [2]: promotes
- hair follicle regeneration (KRT17/PCNA co-immunostaining) [2]: promotes hair follicle regeneration
- melanin accumulation in the induration zone and growth of new hair [2]: promotes
- number of hair follicles or glands [2]: promotes
- degree of induration and incrustation ([2]; after 3 weeks of treatment): significantly reduced
- decrease in lung volume (small animal CT) [3]: inhibits the decrease
- lung tissue damage (H&E staining) [3]: inhibits
- pulmonary fibrosis (Sirius red staining, statistical analysis) [3]: inhibiting pulmonary fibrosis; also recorded: significantly improves; also recorded: inhibits
- survival of mice with pulmonary fibrosis (in words) [3]: significantly promoting survival
- decrease in lung volume (small animal CT) ([3]; listed as Bleb): significantly inhibits
- lung tissue damage (H&E staining) ([3]; listed as Bleb): relieves lung damage
- pulmonary fibrosis (Sirius red staining, statistical analysis) ([3]; listed as Bleb): relieves pulmonary fibrosis
- survival of mice with pulmonary fibrosis (in words) ([3]; listed as Bleb): significantly increases
- survival rate ([3]; day 15 of treatment, 10 mice per group): 40%
- Alb expression in GFP-expressing hepatocytes (CCl4 liver damage; Alb-cre x mTmG hybrid mice, CCl4 fibrosis modeling): most of the cells expressing GFP express Alb
- expression of hepatocyte-related, bile duct-related and proliferation-related genes (transcriptional level) (CCl4 liver damage; compared with the control group): significantly maintains high level expression
- content of liver damage indicators such as ALT, AST and GGT (blood biochemical analysis) (CCl4 liver damage; fasting 12-16 hours before sampling): reduce
- apoptosis during liver damage (TUNEL staining) (CCl4 liver damage; mouse, in vivo): reduces
- cell proliferation after liver damage (ALB/Ki-67 staining) (CCl4 liver damage; mouse, in vivo): significantly promotes
- rigidity of liver tissue (Young's modulus) (liver tissue; day 7 of the treatment): significantly reduces
- massive parallel array of fibers in the liver tissue (second harmonic intravital scanning) (liver tissue; mouse, in vivo): reduced

— patent publication US11622964B2, “Method for destroying cellular mechanical homeostasis and promoting regeneration and repair of tissues and organs, and use thereof” (INSTITUTE OF ZOOLOGY, CHINESE ACADEMY OF SCIENCES, priority 2018, dated 2023)
